Reference: PubChem BioAssay AID1259407 (Chemical Carcinogenesis Research Information System (CCRIS), 2018)
Calls of active or inactive are those of the source. No rule for the calls is given here.

Test system: CCRIS mutagenicity, Ames/micronucleus/aberration tests
Experiment: CCRIS mutagenicity studies
[1] = Test System: AMES SALMONELLA TYPHIMURIUM, Strain/Indicator: TA100, Metabolic Activation: NONE, Method: PREINCUBATION
[2] = Test System: AMES SALMONELLA TYPHIMURIUM, Strain/Indicator: TA1535, Metabolic Activation: NONE, Method: PREINCUBATION

O=C(Cl)c1ccccc1[N+](=O)[O-]
mutagenic call (Test System: AMES SALMONELLA TYPHIMURIUM, Strain/Indicator: TA97, Metabolic Activation: HAMSTER, LIVER, S-9, AROCLOR 1254 (10%), Method: PREINCUBATION): active; positive
mutagenic call (Test System: AMES SALMONELLA TYPHIMURIUM, Strain/Indicator: TA97, Metabolic Activation: NONE, Method: PREINCUBATION): active; positive
mutagenic call (Test System: AMES SALMONELLA TYPHIMURIUM, Strain/Indicator: TA97, Metabolic Activation: RAT, LIVER, S-9, AROCLOR 1254 (10%), Method: PREINCUBATION): active; positive
mutagenic call (Test System: AMES SALMONELLA TYPHIMURIUM, Strain/Indicator: TA98, Metabolic Activation: HAMSTER, LIVER, S-9, AROCLOR 1254 (10%), Method: PREINCUBATION): active; positive
mutagenic call (Test System: AMES SALMONELLA TYPHIMURIUM, Strain/Indicator: TA98, Metabolic Activation: RAT, LIVER, S-9, AROCLOR 1254 (10%), Method: PREINCUBATION): active; positive
mutagenic call (Test System: AMES SALMONELLA TYPHIMURIUM, Strain/Indicator: TA98, Metabolic Activation: RAT, LIVER, S-9, KANECHLOR 500, Method: PREINCUBATION): active; positive
mutagenic call (Test System: AMES SALMONELLA TYPHIMURIUM, Strain/Indicator: TA100, Metabolic Activation: HAMSTER, LIVER, S-9, AROCLOR 1254 (10%), Method: PREINCUBATION): active; positive
mutagenic call [1]: active; positive
mutagenic call (Test System: AMES SALMONELLA TYPHIMURIUM, Strain/Indicator: TA100, Metabolic Activation: RAT, LIVER, S-9, AROCLOR 1254 (10%), Method: PREINCUBATION): active; positive
mutagenic call (Test System: AMES SALMONELLA TYPHIMURIUM, Strain/Indicator: TA100, Metabolic Activation: RAT, LIVER, S-9, KANECHLOR 500, Method: PREINCUBATION): active; positive
mutagenic call (Test System: AMES SALMONELLA TYPHIMURIUM, Strain/Indicator: TA1535, Metabolic Activation: HAMSTER, LIVER, S-9, AROCLOR 1254 (10%), Method: PREINCUBATION): inactive; negative
mutagenic call [2]: inactive; negative
mutagenic call (Test System: AMES SALMONELLA TYPHIMURIUM, Strain/Indicator: TA1535, Metabolic Activation: RAT, LIVER, S-9, AROCLOR 1254 (10%), Method: PREINCUBATION): inactive; negative

C[N+](C)(C)CCO
mutagenic call (Test System: AMES SALMONELLA TYPHIMURIUM, Strain/Indicator: TA98, Metabolic Activation: NONE, Method: PREINCUBATION): inactive; negative
mutagenic call (Test System: AMES SALMONELLA TYPHIMURIUM, Strain/Indicator: TA98, Metabolic Activation: RAT, LIVER, S-9, PHENOBARBITAL AND BETA-NAPHTHOFLAVONE, Method: PREINCUBATION): inactive; negative
mutagenic call [1]: inactive; negative
mutagenic call (Test System: AMES SALMONELLA TYPHIMURIUM, Strain/Indicator: TA100, Metabolic Activation: RAT, LIVER, S-9, PHENOBARBITAL AND BETA-NAPHTHOFLAVONE, Method: PREINCUBATION): inactive; negative
mutagenic call (Test System: AMES SALMONELLA TYPHIMURIUM, Strain/Indicator: TA102, Metabolic Activation: NONE, Method: PREINCUBATION): inactive; negative
mutagenic call (Test System: AMES SALMONELLA TYPHIMURIUM, Strain/Indicator: TA102, Metabolic Activation: RAT, LIVER, S-9, PHENOBARBITAL AND BETA-NAPHTHOFLAVONE, Method: PREINCUBATION): inactive; negative
mutagenic call (Test System: AMES SALMONELLA TYPHIMURIUM, Strain/Indicator: TA104, Metabolic Activation: NONE, Method: PREINCUBATION): inactive; negative
mutagenic call (Test System: AMES SALMONELLA TYPHIMURIUM, Strain/Indicator: TA104, Metabolic Activation: RAT, LIVER, S-9, PHENOBARBITAL AND BETA-NAPHTHOFLAVONE, Method: PREINCUBATION): inactive; negative
mutagenic call [2]: inactive; negative
mutagenic call (Test System: AMES SALMONELLA TYPHIMURIUM, Strain/Indicator: TA1535, Metabolic Activation: RAT, LIVER, S-9, PHENOBARBITAL AND BETA-NAPHTHOFLAVONE, Method: PREINCUBATION): inactive; negative
mutagenic call (Test System: AMES SALMONELLA TYPHIMURIUM, Strain/Indicator: TA1537, Metabolic Activation: NONE, Method: PREINCUBATION): inactive; negative
mutagenic call (Test System: AMES SALMONELLA TYPHIMURIUM, Strain/Indicator: TA1537, Metabolic Activation: RAT, LIVER, S-9, PHENOBARBITAL AND BETA-NAPHTHOFLAVONE, Method: PREINCUBATION): inactive; negative
mutagenic call (Test System: E. COLI, Strain/Indicator: WP2UVRA/PKM101, Metabolic Activation: NONE, Method: PREINCUBATION): inactive; negative
mutagenic call (Test System: E. COLI, Strain/Indicator: WP2UVRA/PKM101, Metabolic Activation: RAT, LIVER, S-9, PHENOBARBITAL AND BETA-NAPHTHOFLAVONE, Method: PREINCUBATION): inactive; negative
mutagenic call (Test System: E. COLI, Strain/Indicator: WP2UVRA, Metabolic Activation: NONE, Method: PREINCUBATION): inactive; negative
mutagenic call (Test System: E. COLI, Strain/Indicator: WP2UVRA, Metabolic Activation: RAT, LIVER, S-9, PHENOBARBITAL AND BETA-NAPHTHOFLAVONE, Method: PREINCUBATION): inactive; negative

CC(C)c1c(N)ccc2ccccc12
mutagenic call (Test System: AMES SALMONELLA TYPHIMURIUM, Strain/Indicator: TA98, Metabolic Activation: NONE, Method: STANDARD PLATE): inactive; negative
mutagenic call (Test System: AMES SALMONELLA TYPHIMURIUM, Strain/Indicator: TA98, Metabolic Activation: RAT LIVER S-9, AROCLOR, Method: STANDARD PLATE): active; positive
mutagenic call (Test System: AMES SALMONELLA TYPHIMURIUM, Strain/Indicator: TA100, Metabolic Activation: NONE, Method: STANDARD PLATE): inactive; negative
mutagenic call (Test System: AMES SALMONELLA TYPHIMURIUM, Strain/Indicator: TA100, Metabolic Activation: RAT LIVER S-9, AROCLOR, Method: STANDARD PLATE): active; positive
